Data from paper PMC4486092 (Clinical Pharmacokinetics, 2015).

Assays:
[1] = not estimated, fixed to estimates of the previous model ref 15; cited from earlier work
[2] = Population pharmacokinetic analysis of linagliptin plasma concentrations; type: in vivo, human (patients with T2DM)
[3] = single rising-dose study, healthy volunteers, up to a dose of 600 mg ref 5; cited from earlier work

change in exposure, combination of covariate effects (largest decrease) ([2]; 5 mg, person, 117 kg, GGT 9.4 U/L, pre-dose DPP-4 activity 8,025 RFU): −26% | increase in linagliptin exposure, impact of weight ([2]; 5th percentile of weight): 5.9% | increase in linagliptin exposure with age ([2]; 73-year-old vs 42-year-old patient (95th and 5th percentile of age)): 13.8% | decrease in linagliptin exposure, impact of weight ([2]; 95th percentile of weight): 8.7% | Weight_F: percentage change in F per kg change from median weight of population ([2]; covariate effect, median weight 88 kg, final model): −0.958 | Dose_Ka: percentage change in Ka per dose unit change from the 5 mg dose group ([2]; covariate effect, final model): −6.51 | CL/F: typical clearance of the unbound concentration ([2]; final model): 258 L/h | πF: intra-individual variability in relative bioavailability ([2]; final model): 40.0 CV % | ωCL: inter-individual variability in clearance of the unbound concentration ([2]; final model): 27.5 CV % | ωF: inter-individual variability in relative bioavailability ([2]; final model): 47.4 CV % | ωKa: inter-individual variability in the absorption rate constant ([2]; final model): 76.4 CV % | ωVC: inter-individual variability in the central volume of distribution ([2]; final model): 24.4 CV % | Vd/F ([2]; human, in vivo): 715 L | Ka,1: typical absorption rate constant study 1 ([2]; powder in bottle formulation, oral): 0.933 h⁻¹ | linear decrease in bioavailability for every 1 kg increase in weight ([2]; relative bioavailability, oral): 0.96% | Ka,2: typical absorption rate constant study 2 ([2]; tablet formulation 1, oral): 0.795 h⁻¹ | Ka,3: typical absorption rate constant studies 3/4 ([2]; tablet formulation 2, oral): 0.441 h⁻¹
Structure (SMILES): CC#CCn1c(N2CCC[C@@H](N)C2)nc2c1c(=O)n(Cc1nc(C)c3ccccc3n1)c(=O)n2C [linagliptin, (R)-8-(3-Amino-piperidin-1-yl)-7-but-2-ynyl-3-methyl-1-(4-methyl-quinazolin-2-ylmethyl)-3,7-dihydro-purine-2,6-dione]
VP/F: typical volume of distribution of the peripheral compartment [1]: 1,650 L | tolerability of a single dose [3]: well tolerated
